A short description of series [1]: Pharmacokinetics of Dositinib and AZD9291 in rats. Conditions: for T1/2: parent drug; for AUC0-last / Cmax: parent drug in plasma; for Cmax: intragastric 12 mg/kg per FIGS. 2-5.
Description: Preparation of Test Solution
2) Preparation of Orally Administered Preparations • a) Weigh an appropriate amount of compound powders into a container; • b) Add an appropriate volume of 0.5% HPMC (hydroxypropyl methylcellulose, 4000 CP) aqueous solution to the container, and continuously stir or whirl until a uniform solution was obtained; • c) Add the remaining volume of 0.5% HPMC (hydroxypropyl methylcellulose, 4000 CP) aqueous solution to the container to a final volume, and continuously stir or whirl until the solution was uniform.
The preparation for intragastric administration was prepared the day before administration and analyzed. When the preparation was not in use, it was stored in a refrigerator at 2° C. to 8° C. and used within 8 days.
Animal: Rats (SD) from Beijing Vital River Laboratory Animal Technology Co., Ltd. 36 rats (18 males and 18 females), 6-10 weeks old, 200-300 g (males); 170-280 g (female). […] The animals in the sixth group were administered with AZD9291 (mesylate) solution by gavage, with a dose volume of 10 mL/kg. The blood samples were taken at the following time points after administration to measure the blood drug concentrations: 0.083, 0.25, 0.5, 1, 2, 4, 6, 8, 12 and 24 hours.
Administration: Whole blood samples were collected through jugular vein puncture (or other appropriate blood collection sites) at the specified time (about 0.15 mL in the fifth group and 0.23 mL in other groups), with wet ice operation throughout the whole process, and the actual blood collection time was recorded in the experimental records. The acceptable error of collection time point was ±1 minute within 1 hour of administration, and ±5% of theoretical time for other time points. The blood samples were immediately transferred to labeled commercial tubes containing K2-EDTA and then centrifuged (3,000 g, 4° C., 15 min) for plasma collection.
Retention time, chromatogram collection and chromatogram integration of compounds and internal standards were processed by Software Analyst (Applied Biosystems), and data statistics were processed by software Watson LIMS (Thermo Fisher Scientific) or Analyst (Applied Biosystems). The unit of the analyte concentration in the sample was nM, three significant figures were reserved, and all values expressed in percentage (such as % deviation and % coefficient of variation, etc.) were reserved to one decimal place.
Data analysis and reporting: WinNonlin™ Version 6.3 (Pharsight, Mountain View, CA) or above pharmacokinetic software for non-atrioventricular models was used to process the blood drug concentration, and the linear logarithm trapezoid method was used to calculate the pharmacokinetic parameters.
The subject of series [2] is Human non-small cell lung cancer HCC827 cell subcutaneous xenograft. Conditions: HCC-827 nude mouse model, PO QD.
Protocol: Example 5 In Vivo Pharmacodynamics of Crystalline Form B of Dositinib and AZD9291 on Human Non-Small Cell Lung Cancer HCC827 Cell Subcutaneous Xenograft BALB/C Nude Mouse Model
Human non-small cell lung cancer HCC827 (ATCC-CRL-2868) was monolayer cultured in vitro. The culture conditions were: RPMI-1640 medium with 10% fetal bovine serum, 100 U/mL penicillin and 100 g/mL streptomycin, in a 5% CO2 incubator at 37° C. Trypsin EDTA was used for routine digestion twice a week. When the cell saturation was 80%-90% and the number reached the requirements, the cells were collected, counted and transplanted.
Animals: BALB/c nude mouse, female, 6-8 weeks old, weight 18-22 g. […]
Experimental index: to investigate whether the tumor growth is inhibited, delayed or cured. The tumor diameter was measured with a vernier caliper twice a week. […]
The antitumor effect of the compound was evaluated by tumor growth inhibition value (TGI) (%) or relative tumor proliferation rate T/C (%). […]
Relative tumor proliferation rate T/C (%): the calculation is as follows: T/C %=TRTV/CRTV×100% (TRTV: treatment group RTV; CRTV: negative control group RTV). The relative tumor volume (RTV) is calculated according to the results of tumor measurement. […]
At the end of the experiment, the tumor weight is measured and the percentage of Tweight/Cweight is calculated. […]
Series [3] has as its target wild EGFR (Homo sapiens, UniProt P00533). Conditions: J. Med. Chem. 2014; cited from earlier work.

wild EGFR, sequence (P00533 25-1210): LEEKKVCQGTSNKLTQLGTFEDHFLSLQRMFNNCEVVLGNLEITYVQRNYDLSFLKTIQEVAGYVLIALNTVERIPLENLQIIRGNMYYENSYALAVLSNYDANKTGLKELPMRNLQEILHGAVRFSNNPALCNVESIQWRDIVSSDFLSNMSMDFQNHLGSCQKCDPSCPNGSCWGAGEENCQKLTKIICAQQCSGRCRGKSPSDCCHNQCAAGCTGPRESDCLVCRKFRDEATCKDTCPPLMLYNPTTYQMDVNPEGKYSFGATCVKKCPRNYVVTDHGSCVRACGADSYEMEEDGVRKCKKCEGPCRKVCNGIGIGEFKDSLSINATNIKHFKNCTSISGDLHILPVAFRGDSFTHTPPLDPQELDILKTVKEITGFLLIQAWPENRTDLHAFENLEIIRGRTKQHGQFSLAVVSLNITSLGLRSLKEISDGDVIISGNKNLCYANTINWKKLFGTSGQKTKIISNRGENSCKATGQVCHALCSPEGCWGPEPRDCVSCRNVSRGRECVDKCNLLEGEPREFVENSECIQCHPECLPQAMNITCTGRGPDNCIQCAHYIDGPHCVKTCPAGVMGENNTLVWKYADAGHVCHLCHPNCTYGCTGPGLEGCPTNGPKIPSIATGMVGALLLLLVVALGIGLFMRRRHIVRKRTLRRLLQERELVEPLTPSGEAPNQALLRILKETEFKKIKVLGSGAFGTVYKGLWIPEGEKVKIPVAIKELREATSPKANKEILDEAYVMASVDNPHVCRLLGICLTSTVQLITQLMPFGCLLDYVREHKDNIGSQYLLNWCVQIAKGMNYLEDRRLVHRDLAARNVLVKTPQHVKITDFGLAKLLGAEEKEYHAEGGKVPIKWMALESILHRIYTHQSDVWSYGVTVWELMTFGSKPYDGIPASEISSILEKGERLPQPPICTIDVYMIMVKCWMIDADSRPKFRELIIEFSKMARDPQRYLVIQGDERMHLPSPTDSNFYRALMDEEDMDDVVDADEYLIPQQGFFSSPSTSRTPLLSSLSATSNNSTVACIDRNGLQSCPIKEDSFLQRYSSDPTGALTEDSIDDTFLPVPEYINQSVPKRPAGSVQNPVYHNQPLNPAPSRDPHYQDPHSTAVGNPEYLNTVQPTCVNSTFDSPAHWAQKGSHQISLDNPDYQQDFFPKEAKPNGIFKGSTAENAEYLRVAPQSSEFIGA

Regarding `CS(=O)(=O)O.[2H]C([2H])=CC(=O)Nc1cc(Nc2nccc(-c3cn(C([2H])([2H])[2H])c4ccccc34)n2)c(OC)cc1N(C)CCN(C)C` [Dositinib (crystalline form B), N-(2-(((2-(Dimethylamino)ethyl)) (methyl)amino)-4-methoxy-5-((4-(d3-1-methyl-1H-indol-3-yl)pyrimidin-2-yl)amino)phenyl) d2-acrylamide-mesylate], in series [1] (female rats), the T1/2 came to 6.85 h, the AUC0-last is 3105 ng·h/mL and the Cmax is 208 ng/mL. For the same compound, in series [1] (male rats), the T1/2 was determined as 3.87 h, the AUC0-last turned out to be 1100 ng·h/mL and the Cmax is listed as 115 ng/mL. Besides, in series [2], the “anticancer activity relative to AZD9291 (Osimertinib, mixture of crystalline forms A and B)” value was “twice”. Moreover, the “anticancer activity of 0.5 mg/kg compared with 1 mg/kg of AZD9291” value in series [2] (0.5 mg/kg) is on record as “equivalent”.

In the case of `C=CC(=O)Nc1cc(Nc2nccc(-c3c[nH]c4ccccc34)n2)c(OC)cc1N(C)CCN(C)C` [AZ5104], the “inhibitory activity on wild EGFR, times stronger than that of Osimertinib” value in series [3] is listed as 14.5 times.

For `C=CC(=O)Nc1cc(Nc2nccc(-c3cn(C)c4ccccc34)n2)c(OC)cc1N(C)CCN(C)C` [AZD9291 (crystalline form A + B), Osimertinib, reference compound], in series [1] (female rats), the T1/2 was 5.59 h, the AUC0-last turned out to be 2592 ng·h/mL and the Cmax amounted to 207 ng/mL. Besides, in series [1] (male rats), the T1/2 is 3.40 h, the AUC0-last came to 907 ng·h/mL and the Cmax stood at 106 ng/mL.

With `CS(=O)(=O)O.[2H]C([2H])=CC(=O)Nc1cc(Nc2nccc(-c3cn(C([2H])([2H])[2H])c4ccccc34)n2)c(OC)cc1N(C)CCN(C)C` [Dositinib (crystalline form A + B), N-(2-(((2-(Dimethylamino)ethyl)) (methyl)amino)-4-methoxy-5-((4-(d3-1-methyl-1H-indol-3-yl)pyrimidin-2-yl)amino)phenyl) d2-acrylamide-mesylate], in series [1] (female rats), the T1/2 is on record as 6.77 h, the AUC0-last came out at 2650 ng·h/mL and the Cmax came to 205 ng/mL. Also, in series [1] (male rats), the T1/2 worked out at 3.70 h, the AUC0-last amounted to 915 ng·h/mL and the Cmax was 110 ng/mL.

By Cmax is commonly meant the peak of the concentration-time curve.

The record behind these values is patent US12428398B2, “2-(2,4,5-substituted phenylamino) pyrimidine derivative and crystalline form B thereof” (Henan Genuine Biotech Co., Ltd., priority 2019, dated 2025).
